Test [1] deals with JAK kinases (JAK1 and JAK3). The experiment in a line: JAK inhibition: IL-4-stimulated CD23 upregulation in human Ramos B-cells, FACS. It is filed as cell-based. Particulars: IL-4 stimulated Ramos B-cells, read-out: IC50, inhibition of JAK kinases in cellular assay. On the procedure:
JAK inhibition was tested in human Ramos B-cells activated with IL-4. Twenty to 24 hours post stimulation, the cells are stained for upregulation of CD23 and analyzed by FACS. Stimulation of the B-cells with IL-4 leads to the activation of the JAK/STAT pathway through phosphorylation of the JAK kinase JAK1 and JAK3, which in turn phosphorylate and activate transcription of factor […].
For the assay, human Ramos B-cells (ATCC, Catalog No. CRL-1596) are cultured in RPMI 1640 medium (Cellgro, Catalog No. 10-040-CM) containing 10% fetal bovine serum (JRH, Catalog No. 12106-500M) according to the propagation protocol supplied with the cells, and maintained at a density of approximately 3.5×10^5 cells/ml. The day before the assay, the cells are diluted to 3.5×10^5 cells/ml to insure they are in the logarithmic growth phase. The cells are spun down, and suspended in RPMI 1640 medium containing 5% fetal bovine serum to a density of 3.5×10^4 cells/ml and aliquots dispensed into a 96-well tissue culture plate. Cells are incubated with test compound (dissolved in DMSO) or DMSO (control) for 1 hr at 37° C. and then stimulated with IL-4 (Pepotech, Catalog No. 200-04) for 20-24 hours (final concentration is 50 Units/ml). Cells are then spun down, stained with anti-CD23-PE antibody (BD Pharmigen, Catalog No. 555711) and analyzed by FACS.

In the next test the target is T1, Axl kinase (Homo sapiens, UniProt P30530).
T1 construct: endogenous in cells; host or cells: HeLa cells
T1 sequence (P30530 26-894): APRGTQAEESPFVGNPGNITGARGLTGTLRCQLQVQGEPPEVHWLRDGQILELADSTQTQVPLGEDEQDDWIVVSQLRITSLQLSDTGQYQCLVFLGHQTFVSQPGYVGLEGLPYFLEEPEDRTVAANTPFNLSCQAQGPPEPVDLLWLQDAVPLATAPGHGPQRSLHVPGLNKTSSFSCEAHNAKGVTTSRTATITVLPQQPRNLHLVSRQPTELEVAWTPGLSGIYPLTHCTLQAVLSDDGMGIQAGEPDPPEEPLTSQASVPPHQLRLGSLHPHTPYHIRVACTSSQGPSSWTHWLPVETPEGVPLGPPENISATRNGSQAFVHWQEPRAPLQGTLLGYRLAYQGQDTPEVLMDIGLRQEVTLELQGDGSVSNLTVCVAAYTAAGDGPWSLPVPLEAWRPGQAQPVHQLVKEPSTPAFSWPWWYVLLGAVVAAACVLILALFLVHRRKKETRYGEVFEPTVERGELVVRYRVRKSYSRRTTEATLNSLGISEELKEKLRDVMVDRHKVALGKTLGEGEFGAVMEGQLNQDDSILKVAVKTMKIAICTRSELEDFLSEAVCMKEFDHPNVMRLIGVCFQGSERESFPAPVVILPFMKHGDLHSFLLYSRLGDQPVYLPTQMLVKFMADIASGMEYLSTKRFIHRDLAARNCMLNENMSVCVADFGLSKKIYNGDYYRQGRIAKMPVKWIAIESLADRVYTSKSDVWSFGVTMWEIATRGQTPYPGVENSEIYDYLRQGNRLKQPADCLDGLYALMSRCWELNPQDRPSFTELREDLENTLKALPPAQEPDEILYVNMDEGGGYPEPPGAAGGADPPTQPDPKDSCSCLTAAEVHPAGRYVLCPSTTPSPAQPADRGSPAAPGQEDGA
In words: Phospho-Akt in-cell Western assay (Axl antibody cross-linking, Hela cells). Particulars: phospho-Akt readout, read-out: IC50, inhibition of Axl kinase. It is filed as cell-based. On the procedure:
The compounds of the invention were tested in the following assay for their ability to inhibit Axl activity.
Phospho-Akt in-Cell Western Assay
Starvation medium: For Axl stimulation: 0.5% FCS (fetal calf serum) in DMEM, plus Axl/Fc (extracellular domain of AXL fused to immunoglobulin Fc region) (R&D, 154-AL) 500 ng/mL.
Axl antibody cross-linking: • 1st: Mouse anti-Axl (R&D, MAB 154). • 2nd: Biotin-SP-conjugated AffiniPure goat anti-mouse IgG (H+L) (Jackson ImmunoResearch #115-065-003).
Primary antibody: Rabbit anti-human Phospho-Akt antibody (Cell Signaling 9271): 1×250 diluted in blocking buffer.
Secondary antibody: HRP (horse radish peroxidase)-conjugated Goat anti-Rabbit secondary, stock solution: Jackson lmmunoResearch (Goat anti-Rabbit HRP, #111-035-144) 1:1 diluted in glycerol, store at −20° C. The working solution: 1×2000 dilution of stock in blocking buffer.
A 96 well TC (tissue culture treated) plate was coated with 10 μg/mL poly-L-Lysine at 37° C. for 30 min, washed twice with PBS, and air-dried for 5 minutes before cells were added. Hela cells were seeded at 10,000 cells/well and the cells were starved in 100 μL starvation medium containing Axl/Fc for 24 hrs.
The cells were pre-treated with test compounds by adding 100 μL of 2× test compound to the starvation medium on the cells. The cells were incubated at 37° C. for 1 hr before stimulation.
The cells were stimulated by Axl-antibody cross-linking as follows: A 5× 1st/2nd Axl antibody mixture was made (37.5 μg/mL 1st/100 μg/mL 2nd) in starvation medium and nutated at 4° C. with thorough mixing for 1-2 hours for clustering. The resulting mix was warmed to 37° C. 50 μL of 5× Axl 1st/2nd of antibody cluster was added to the cells and the cells were incubated at 37° C. for 5 min.
After 5 minutes stimulation, the plate was flicked to remove medium and the plate was tapped onto paper towels. Formaldehyde (4.0% in PBS, 100 μL) was added to fix the cells and the cells were incubated at ambient temperature for 20 min without shaking.
The cells were washed with a plate washer buffer to remove the formaldehyde solution. The plate was flicked to remove excess wash buffer and tapped onto paper towels. Quenching buffer (100 μL) was added to each well and the cells were incubated at ambient temperature for 20 minutes without shaking.
The cells were washed with a plate washer buffer to remove the quenching buffer. Blocking buffer (100 μL) was added and the cells were incubated at ambient temperature for at least an hour with gentle shaking.
The cells were washed with a plate washer buffer and diluted primary antibody (50 μL) was added to each well (blocking buffer was added to the negative control wells instead). The plates were incubated overnight at 4° C. with gentle shaking.
The wash buffer was removed, diluted secondary antibody (100 μL) was added, and the cells were incubated at ambient temperature for 1 hour with gentle shaking. During the incubation, the chemiluminescent reagent was brought to ambient temperature.
The secondary antibody was removed by washing the cells 1× with wash buffer, 1× with PBS by plate washer. The PBS was removed from the plate and the chemiluminescent reagent (80 μL: 40 μL A and 40 μL B) was added to each well at ambient temperature.
The resulting chemiluminescence was read with a Luminomitor within 10 minutes to minimize changes in signal intensity. After reading the chemiluminescence, the cells were washed 1× with wash buffer and 1× with PBS by plate washer. The plate was tapped onto paper towels to remove excess liquid from wells and air-dried at ambient temperature for 5 minutes.
Crystal Violet working solution (60 μL) was added to each well and the cells were incubated at ambient temperature for 30 min. The crystal violet solution was removed, and the wells were rinsed with PBS, then washed 3× with PBS (200 μL) for 5 minutes each.
5% SDS solution (70 μL) was added to each well and the cells were incubated on a shaker for 30 min at ambient temperature. […]

For a further test, the target named is Syk kinase (Homo sapiens, UniProt P43405). In words: cell-based Syk assay. The settings on record: read-out: IC50, inhibition of Syk kinase.

By IC50 is commonly meant the concentration that inhibits the measured activity by half.

As for `NC(=O)C1C2C=CC(C2)C1Nc1nc(Nc2cccc(OCc3ccncc3)c2)nc2[nH]ccc12` (racemic) [Compound 223, Racemic-(2-exo,3-exo)-N4-(3-aminocarbonylbicyclo [2.2.1]hept-5-en-2-yl)-N2-[3-(4-pyridinylmethoxy)] phenyl-1H-pyrrolo[2,3-d]pyrimidine-2,4-diamine], the IC50 in test [1] was > 10 µM; on Axl kinase, < 10 µM. The corresponding values for `NC(=O)C1C2C=CC(C2)C1Nc1nc(Nc2cccc(OCc3ccncc3)c2)nc2[nH]cnc12` (racemic) [Compound 224, Racemic-(2-exo,3-exo-)-N6-(3-aminocarbonylbicyclo [2.2.1]hept-5-en-2-yl)-N2-[3-(4-pyridinylinethoxy)] phenyl-1H-purine-2,6-diamine] are > 10 µM and < 10 µM.

Regarding `NC(=O)C1C2C=CC(C2)C1Nc1nc(Nc2cccc(OCc3cccnc3)c2)nc2[nH]ccc12` (racemic) [Compound 225, Racemic-(2-exo,3-exo)-N4-(3-aminocarbonylbicyclo [2.2.1]hept-5-en-2-yl)-N2-[3-(3-pyridinylmethoxy)] phenyl-1H-pyrrolo[2,3-d]pyrimidine-2,4-diamine], the IC50 in test [1] is > 10 µM; at Axl kinase it was < 5 µM. `NC(=O)C1C2C=CC(C2)C1Nc1nc(Nc2cccc(OCc3cccnc3)c2)nc2[nH]cnc12` (racemic) [Compound 226, Racemic-(2-exo,3-exo-)-N6-(3-aminocarbonylbicyclo [2.2.1]hept-5-en-2-yl)-N2-[3-(3-pyridinylmethoxy)phenyl]-1H-purine-2,6-diamine]: the concentration for half-maximal inhibition (IC50) was > 10 µM in test [1] and < 5 µM on Axl kinase.

With `CONC(=O)Cc1ccc(Nc2nc(NC3C4C=CC(C4)C3C(N)=O)c3cc[nH]c3n2)cc1` (racemic) [Compound 227, Racemic-(2-exo,3-exo)-N4-(3-aminocarbonylbicyclo [2.2.1]hept-5-en-2-yl)-N2-[4-(N-methoxy)-aminocarbonyl-methylphenyl]-1H-pyrrolo[2,3-d]pyrimidine-2,4-diamine], the half-inhibitory concentration (IC50) on Axl kinase is > 10 µM; on Syk kinase it was < 10 µM. For `CONC(=O)Cc1ccc(Nc2nc(NC3C4C=CC(C4)C3C(N)=O)c3nc[nH]c3n2)cc1` (racemic) [Compound 228, Racemic-(2-exo,3-exo-)-N6-(3-aminocarbonylbicyclo [2.2.1]hept-5-en-2-yl)-N2-[4-(N-methoxy)-aminocarbonyl-inethylphenyl]-1H-purine-2,6-diamine], in that order: > 10 µM and > 10 µM. Consider `CONC(=O)C1C2C=CC(C2)C1Nc1nc(Nc2cccc(OC)c2)nc2[nH]ccc12` (racemic) [Compound 233, Racemic-(2-exo,3-exo)-N4-(N-methoxy-3-aminocarbonylbicyclo [2.2.1]hept-5-en-2-yl)-N2-(3-methoxyphenyl)-1H-pyrrolo[2,3-d]pyrimidine-2,4-diamine], for which the concentration for half-maximal inhibition (IC50) (in test [1]; on Axl kinase) was < 5 µM in each case. Take `NC(=O)C1C2C=CC(C2)C1Nc1nc(Nc2ccc(OCCN3CCCC3)c(Cl)c2)nc2[nH]cnc12` (racemic) [Compound 235, Racemic-(2-exo,3-exo-)-N6-(3-aminocarbonylbicyclo [2.2.1]hept-5-en-2-yl)-N2-[3-chloro-4-[2-(1-pyrrolidinyl)ethoxy]phenyl]-1H-purine-2,6-diamine]: the IC50 at Syk kinase is < 5 µM.

`NC(=O)C1C2C=CC(C2)C1Nc1nc(Nc2ccc(OCCN3CCCC3)c(F)c2)nc2[nH]cnc12` (racemic) [Compound 236, Racemic-(2-exo,3-exo-)-N6-(3-aminocarbonylbicyclo [2.2.1]hept-5-en-2-yl)-N2-[3-fluoro-4-[2-(1-pyrrolidinyl)ethoxy]phenyl]-1H-purine-2,6-diamine]: at Syk kinase, the 50% inhibitory concentration (IC50) was < 10 µM.

As for `Cc1csc2c(NC3C4C=CC(C4)C3C(N)=O)nc(Nc3ccc(OCCN4CCCC4)cc3)nc12` (racemic) [Compound 240, Racemic-(2-exo,3-exo-)-7-methyl-N4-(3-aminocarbonylbicyclo [2.2.1]hept-5-en-2-yl)-N2-[4-[2-(1-pyrrolidinyl)ethoxy]phenyl]-thieno[3,2-d]pyrimidine-2,4-diamine], the IC50 in test [1] was < 5 µM; at Axl kinase it was < 10 µM. For the compound `Cc1csc2c(NC3C4C=CC(C4)C3C(N)=O)nc(Nc3ccc(OCCN4CCCC4)c(F)c3)nc12` (racemic) [Compound 241, Racemic-(2-exo,3-exo-)-7-methyl-N4-(3-aminocarbonylbicyclo [2.2.1]hept-5-en-2-yl)-N2-[3-fluoro-4-[2-(1-pyrrolidinyl)ethoxy]phenyl]-thieno[3,2-d]pyrimidine-2,4-diamine], the IC50 (in test [1]; at Axl kinase) was < 5 µM throughout. As for `Cc1csc2c(NC3C4C=CC(C4)C3C(N)=O)nc(Nc3ccc(S(N)(=O)=O)cc3)nc12` (racemic) [Compound 242, Racemic-(2-exo,3-exo-)-7-methyl-N4-(3-aminocarbonylbicyclo [2.2.1]hept-5-en-2-yl)-N2-(4-aminosulfonyl)phenyl-thieno[3,2-d]pyrimidine-2,4-diamine], the 50% inhibitory concentration (IC50) in test [1] is < 5 µM; at Axl kinase, > 10 µM.

Source of the values: patent publication US7601713B2, “Kinase inhibitors and their uses” (Rigel Pharmaceuticals, Inc., priority 2005, dated 2009).
